The record followed here is patent US6455270B1, “Method for inhibiting eukaryotic protein kinases” (TerraGen Discovery Inc., priority 1997, dated 2002).

For one experiment, the system named is Streptomyces 85E. Briefly: Inhibition of sporulation in Streptomyces 85E (filter paper disc on freshly seeded plate). It counts as cell-based, Streptomyces WEC478-85E. The following applies: for zone of inhibition at 10 µg/disc: Streptomyces, 85E, 10 ug compound applied to disc; for Growth of the vegetative mycelia: disc assay, 10 ug. An excerpt: adding the material to be tested for kinase inhibitory activity to a growing culture of a prokaryotic organism such as a streptomycete;
allowing the culture to grow for a period of time in the presence of the material; and
observing the culture for altered development relative to development of the prokaryotic organism grown in the absence of the material. Observation of altered development is indicative that the material has activity as an inhibitor of post-translational protein phosphorylation. In particular, the material to be tested can be added to a growing culture of the prokaryotic organism by placing a carrier disk bearing the material on a freshly seeded plate. Inhibition of the development of aerial mycelia and spore formation is an indicator that the material has activity as an inhibitor of post-translational protein phosphorylation.
We have used a wild strain of Streptomyces isolated from soil and designated Streptomyces WEC478-85E (hereinafter strain 85E) to test lichen extracts. Strain 85E has been deposited with the American Type, Culture Collection in accordance with the provisions of the Budapest treaty and has been assigned Accession Number ATCC 55824.
In the test assay, the lichen-extract to be tested was applied to a filter paper disk and then placed on a plate which has been freshly seeded with the strain 85E test organism. The test organism is then allowed to grow in the presence of the filter paper disk for a period of 24 to 36 hours, after which the organism is evaluated for altered development in the zone around the disk. An observation of an inhibition of the formation of aerial mycelia and spores, without inhibition of the growth of vegetative mycelia is particularly indicative of the presence of an inhibitor of post-translational phosphorylation.

The test system of a further experiment is Protein Kinase C. In words: Protein Kinase C inhibition (PKC reaction). It counts as biochemical. Particulars: 10 ng PKC, incubated 30 min. at 30° C. with 5 ug compound (about 600 uM in 25 ul). The method, then:
III. Protein Kinase C incubated 30 min. at 30° C. with 5 ug usnic acid or 5 ug vulpinic acid: 5 ug in the 50 ul PTK reaction mixture represents a concentration of about 300 uM for both of these compounds and twice that in the 25 ul PKC reactions. Thus, inhibition was detected for this particular protein tyrosine kinase and only minimally inhibitory for protein kinase C. Other protein kinases may show greater or lesser levels of inhibition.

The target of the next experiment is Human c-Src kinase (Homo sapiens, UniProt P12931). Briefly: Human c-Src kinase inhibition (PTK reaction). Particulars: 0.2 unit c-Src. The class given is biochemical. The method, then: I. Human c-Src kinase incubated 30 min. at 30° C. with 5 ug usnic acid or-vulpinic acid: II. Human c-Src incubated 5 min. at 30° C. with 5 ug usnic acid or 5 ug vulpinic acid: 5 ug in the 50 ul PTK reaction mixture represents a concentration of about 300 uM for both of these compounds and twice that in the 25 ul PKC reactions. Thus, inhibition was detected for this particular protein tyrosine kinase and only minimally inhibitory for protein kinase C. Other protein kinases may show greater or lesser levels of inhibition.
Chain of Human c-Src kinase (P12931 whole entry): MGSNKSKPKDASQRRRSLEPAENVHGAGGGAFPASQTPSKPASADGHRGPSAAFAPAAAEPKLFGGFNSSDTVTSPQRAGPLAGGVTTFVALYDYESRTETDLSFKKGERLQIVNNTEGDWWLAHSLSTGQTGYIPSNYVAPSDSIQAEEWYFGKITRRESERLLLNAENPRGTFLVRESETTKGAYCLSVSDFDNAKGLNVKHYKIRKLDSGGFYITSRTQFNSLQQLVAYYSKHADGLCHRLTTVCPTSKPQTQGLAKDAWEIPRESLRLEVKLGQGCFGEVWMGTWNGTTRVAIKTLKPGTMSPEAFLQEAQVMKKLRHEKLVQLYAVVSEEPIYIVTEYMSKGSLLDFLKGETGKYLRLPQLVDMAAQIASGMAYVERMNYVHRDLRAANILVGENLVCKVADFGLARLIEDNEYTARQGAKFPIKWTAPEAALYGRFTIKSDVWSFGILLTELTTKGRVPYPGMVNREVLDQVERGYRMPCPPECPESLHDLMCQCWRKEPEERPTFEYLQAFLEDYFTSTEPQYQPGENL

By zone of inhibition is commonly meant the extent of the growth-free halo in a diffusion test. A lower zone of inhibition goes with little suppression of growth. On to `CC(=O)c1c(O)c(C)c(O)c2c1OC1=CC(=O)C(C(C)=O)C(=O)C12C` (stereo not shown) [usnic acid], for which, in the experiment on Streptomyces 85E, the zone of inhibition at 10 µg/disc came to 15 mm and the “Growth of the vegetative mycelia” value was “not inhibited”.
Turning to `COC(=O)/C(=C1/OC(=O)C(c2ccccc2)=C1O)c1ccccc1` [vulpinic acid], the “Protein Kinase C reaction reading (control reaction 0.289)” value in the experiment with Protein Kinase C came out at 0.230. Besides, in the experiment with Streptomyces 85E, the zone of inhibition at 10 µg/disc is 15 mm and the “Growth of the vegetative mycelia” value is “not inhibited”. For the same compound, the “c-Src kinase reaction reading (control reaction 0.208)” value on Human c-Src kinase (incubated 5 min. at 30° C. with 5 ug compound (about 300 uM in 50 ul)) is 0.180. The “c-Src kinase reaction reading (control reaction 0.562)” value on Human c-Src kinase (incubated 30 min. at 30° C. with 5 ug compound (about 300 uM in 50 ul)) is 0.483.
